According to US9023852B2, “1, 2, 4-thiadiazol-5-ylpiperazine derivatives useful in the treatment of neurodegenerative diseases” (Remynd NV, priority 2011, dated 2015):

What follows are compounds tested on M17—3TAU(P301L) cells (assay: Neuroblastoma tauopathy model: inhibition of TAU-induced cytotoxicity (LDH)). Settings: Homo sapiens, 168 h; inhibition of TAU-induced toxicity (LDH), 7 days differentiation with retinoic acid.
Type: cell-based
Excerpt: A TAU expression plasmid was constructed by sub-cloning the cDNA encoding for human TAU-P301L protein, wherein proline at position 301 is substituted by a leucine residue, into mammalian expression vector pcDNA3.1 resulting in the plasmid pcDNA3.1-TAUP301L. Plasmids pcDNA3.1 and pcDNA3.1-TAU P301L were transfected into human neuroblastoma cells (BE-M17; ATCC No. CRL-2267™) using lipofectamine reagent and subsequently, independent clonal cell lines with the plasmids stably integrated into the genome were selected by antibiotic resistance selection (Geneticin (G418)), resulting in cell lines M17.pcDNA3 and M17—3TAUP301L. Expression of the TAUP301L gene in the M17—3TAUP301L cells was confirmed by Western blot analysis.
Differentiation of the cells with RA leads to phosphorylation and subsequent aggregation of TAU, inducing a tauopathy in these cells. Cytotoxicity of cells was measured by quantification of lactate dehydrogenase (LDH) levels. In dead cells LDH is leaked out of the cells into the medium due to a loss of plasma-membrane integrity.
Briefly, 3 days preceding the experiment pre-cultures of M17.pcDNA3 and M17—3TAU(P301L) cells were prepared, starting from a stock culture, at a density of 50.000-100.000 cells/cm2 in detection medium (Optimem Reduced Serum without phenol red (Gibco, Cat. 31985-047) supplemented with 1% fetal calf serum (FCS), 1 mM sodium pyruvate, 1× non-essential amino acids (NEAA), 500 μg/ml G418 and 0.5× antibiotic/antimycotic (ABAM)). At the day of the experiment these precultures were diluted to ˜0, 1.106 cells/ml in detection medium without FCS and 60 μL of this suspension is dispensed per well into a 96-well microtiter plate. After 3 hours of incubation at 37° C./5% CO2 an equal volume of detection medium containing 2.5 μM RA was added and subsequently incubated for 7 days at 37° C./5% CO2. After 7 days, LDH activity was determined using the Promega Cytotox 96 Non-Radioactive cytotoxicity assay (Cat. G1780), according the manufacturer's instructions. Cytotoxicity is measured as the ratio of LDH increase in the supernatant divided by the LDH increase in the total cell suspension (sum of the LDH measured in cells and supernatant).
The M17—3TAU(P301L) cell line makes it possible to assess the ability of novel compounds to inhibit TAU-induced cytotoxicity. […] Compounds were tested for their ability to hamper TAU-induced toxicity at different concentrations, ranging from low non-effective concentrations to high potent concentrations. Afterwards, the dose-dependent inhibition curve was used to calculate their EC50 (Table 1).

Compound	EC50
Clc1ccc(-c2nsc(N3CCN(CCC4CCCCC4)CC3)n2)cc1 [Example 161, 3-(4-chlorophenyl)-5-(4-(2-cyclohexylethyl)piperazin-1-yl)-1,2,4-thiadiazole]	39.6 nM
N#Cc1cccc(-c2nsc(N3CCN(CCc4ccccc4)CC3)n2)c1 [Example 109, 3-[5-(4-Phenethyl-piperazin-1-yl)-[1,2,4]thiadiazol-3-yl]-benzonitrile]	3 nM
COc1ccc(C(O)CN2CCN(c3nc(-c4ccc(Cl)cc4)ns3)CC2)cc1 (stereo not shown) [Example 54, 2-{4-[3-(4-Chloro-phenyl)-[1,2,4]thiadiazol-5-yl]-piperazin-1-yl}-1-(4-methoxy-phenyl)-ethanol]	16.1 nM
N#Cc1cccc(-c2nsc(N3CCN(CCc4ccc(F)cc4)CC3)n2)c1 [Example 111, 3-(5-{4-[2-(4-Fluoro-phenyl)-ethyl]piperazin-1-yl}-[1,2,4]thiadiazol-3-yl)-benzonitrile]	3.1 nM
Cc1cc(-c2nsc(N3CCN(CCc4ccccc4)CC3)n2)ccn1 [Example 171, 3-(2-methylpyridin-4-yl)-5-(4-phenethylpiperazin-1-yl)-1,2,4-thiadiazole]	2.4 nM
Cc1ccccc1CN1CCN(c2nc(-c3ccc(C#N)cc3)ns2)CC1 [Example 118, 4-{5-[4-(2-Methyl-benzyl)-piperazin-1-yl]-[1,2,4]thiadiazol-3-yl}-benzonitrile]	181 nM
COc1cc(CCN2CCN(c3nc(-c4cccc(F)c4)ns3)CC2)ccn1 [Example 90, 1-[3-(3-Fluoro-phenyl)-[1,2,4]thiadiazol-5-yl]-4-[2-(2-methoxy-pyridin-4-yl)-ethyl]-piperazine]	6.8 nM
COc1ccc(CCN2CCN(c3nc(-c4cccc(Cl)c4)ns3)CC2)cc1 [Example 41, 1-[3-(3-Chloro-phenyl)-[1,2,4]thiadiazol-5-yl]-4-[2-(4-methoxy-phenyl)-ethyl]-piperazine]	0.7 nM
COc1ccc(CCN2CCN(c3nc(-c4cnccn4)ns3)CC2)cc1 [Example 76, 2-(5-{4-[2-(4-Methoxy-phenyl)-ethyl]-piperazin-1-yl}-[1,2,4]thiadiazol-3-yl)-pyrazine]	40.8 nM
Clc1ccc(CCN2CCN(c3nc(-c4cccc(Cl)c4)ns3)CC2)cc1 [Example 87, 1-[2-(4-Chloro-phenyl)-ethyl]-4-[3-(3-chloro-phenyl)-[1,2,4]thiadiazol-5-yl]-piperazine]	13.1 nM
COc1ccc(CCN2CCN(c3nc(-c4ccc(C#N)cc4)ns3)CC2)cn1 [Example 114, 4-(5-{4-[2-(6-Methoxy-pyridin-3-yl)-ethyl]-piperazin-1-yl}-[1,2,4]thiadiazol-3-yl)-benzonitrile]	7.9 nM
COc1ccc(CCN2CCN(c3nc(-c4ccc(C(F)(F)F)nc4)ns3)CC2)cc1 [Example 42, 1-[2-(4-Methoxy-phenyl)-ethyl]-4-[3-(6-trifluoromethyl-pyridin-3-yl)-[1,2,4]thiadiazol-5-yl]-piperazine]	0.3 nM
Fc1ccc(CCN2CCN(c3nc(-c4cncc(Cl)c4)ns3)CC2)cc1 [Example 131, 1-[3-(5-Chloro-pyridin-3-yl)-[1,2,4]thiadiazol-5-yl]-4-[2-(4-fluoro-phenyl)-ethyl]-piperazine]	1.3 nM
COc1cccc(CCN2CCN(c3nc(-c4ccc(F)cc4)ns3)CC2)c1 [Example 34, 1-[3-(4-Fluoro-phenyl)-[1,2,4]thiadiazol-5-yl]-4-[2-(3-methoxy-phenyl)-ethyl]-piperazine]	1.4 nM
Cc1ncc(-c2nsc(N3CCN(CCc4ccc(Cl)cc4)CC3)n2)cn1 [Example 180, 5-(4-(4-chlorophenethyl)piperazin-1-yl)-3-(2-methylpyrimidin-5-yl)-1,2,4-thiadiazole]	129 nM
COc1ccc(CCN2CCN(c3nc(-c4cc(Cl)ccn4)ns3)CC2)cc1 [Example 125, 1-[3-(4-Chloro-pyridin-2-yl)-[1,2,4]thiadiazol-5-yl]-4-[2-(4-methoxy-phenyl)-ethyl]-piperazine]	3 nM
COc1cccc(CCN2CCN(c3nc(-c4ccc(F)cc4OC)ns3)CC2)c1 [Example 66, 1-[3-(4-Fluoro-2-methoxy-phenyl)-[1,2,4]thiadiazol-5-yl]-4-[2-(3-methoxy-phenyl)-ethyl]-piperazine]	1.5 nM

Compound	EC50
COc1cccc(CCN2CCN(c3nc(-c4ccc(Cl)cc4F)ns3)CC2)c1 [Example 55, 1-[3-(4-Chloro-2-fluoro-phenyl)-[1,2,4]thiadiazol-5-yl]-4-[2-(3-methoxy-phenyl)-ethyl]-piperazine]	4.2 nM
COc1cccc(CCN2CCN(c3nc(-c4ccc(C(F)(F)F)nc4)ns3)CC2)c1 [Example 30, 1-[2-(3-Methoxy-phenyl)-ethyl]-4-[3-(6-trifluoromethyl-pyridin-3-yl)-[1,2,4]thiadiazol-5-yl]-piperazine]	147 nM
COc1ccc(CCN2CCN(c3nc(-c4ccc(F)cc4)ns3)CC2)cc1 [Example 47, 1-[3-(4-Fluoro-phenyl)-[1,2,4]thiadiazol-5-yl]-4-[2-(4-methoxy-phenyl)-ethyl]-piperazine]	0.4 nM
Fc1ccc(CCN2CCN(c3nc(-c4cncc(Cl)c4)ns3)CC2)cc1F [Example 160, 3-(5-chloropyridin-3-yl)-5-(4-(3,4-difluorophenethyl)piperazin-1-yl)-1,2,4-thiadiazole]	0.4 nM
Clc1ccc(-c2nsc(N3CCN(CCc4cccc(Cl)c4)CC3)n2)cc1 [Example 22, 1-[2-(3-Chloro-phenyl)-ethyl]-4-[3-(4-chloro-phenyl)-[1,2,4]thiadiazol-5-yl]-piperazine]	4.2 nM
Fc1cccc(-c2nsc(N3CCN(CCc4cccc(C(F)(F)F)c4)CC3)n2)c1 [Example 141, 1-[3-(3-Fluoro-phenyl)-[1,2,4]thiadiazol-5-yl]-4-[2-(3-trifluoromethyl-phenyl)-ethyl]-piperazine]	198 nM
COc1cc(CCN2CCN(c3nc(-c4ccnc(C)c4)ns3)CC2)ccn1 [Example 172, 5-(4-(2-(2-methoxypyridin-4-yl)ethyl)piperazin-1-yl)-3-(2-methylpyridin-4-yl)-1,2,4-thiadiazole]	14.4 nM
COc1ccc(CCN2CCN(c3nc(-c4ccc(C)cc4)ns3)CC2)cc1 [Example 19, 1-[2-(4-Methoxy-phenyl)-ethyl]-4-(3-p-tolyl-[1,2,4]thiadiazol-5-yl)-piperazine]	2 nM
COc1ccc(CCN2CCN(c3nc(-c4ccc(OC)cc4)ns3)CC2)cc1 [Example 40, 1-[2-(4-Methoxy-phenyl)-ethyl]-4-[3-(4-methoxy-phenyl)-[1,2,4]thiadiazol-5-yl]-piperazine]	14.1 nM
COc1ccc(-c2nsc(N3CCN(CCc4cccc(OC)c4)CC3)n2)cc1 [Example 49, 1-[2-(3-Methoxy-phenyl)-ethyl]-4-[3-(4-methoxy-phenyl)-[1,2,4]thiadiazol-5-yl]-piperazine]	49.6 nM
COc1ccc(CCN2CCN(c3nc(-c4ccc(Cl)cc4)ns3)CC2)cc1 [Example 17, 1-[3-(4-Chloro-phenyl)-[1,2,4]thiadiazol-5-yl]-4-[2-(4-methoxy-phenyl)-ethyl]-piperazine]	0.8 nM
Cc1ccccc1CN1CCN(c2nc(-c3cncc(Cl)c3)ns2)CC1 [Example 151, 1-[3-(5-Chloro-pyridin-3-yl)-[1,2,4]thiadiazol-5-yl]-4-(2-methyl-benzyl)-piperazine]	8.2 nM
Clc1ccnc(-c2nsc(N3CCN(CCc4ccccc4)CC3)n2)c1 [Example 120, 1-[3-(4-Chloro-pyridin-2-yl)-[1,2,4]thiadiazol-5-yl]-4-phenethyl-piperazine]	16.1 nM
COc1cccc(CCN2CCN(c3nc(-c4cccc(OC)c4)ns3)CC2)c1 [Example 15, 1-[2-(3-Methoxy-phenyl)-ethyl]-4-[3-(3-methoxy-phenyl)-[1,2,4]thiadiazol-5-yl]-piperazine]	21.4 nM
Cc1cccc(CCN2CCN(c3nc(-c4ccc(Cl)cc4)ns3)CC2)c1 [Example 23, 1-[3-(4-Chloro-phenyl)-[1,2,4]thiadiazol-5-yl]-4-(2-m-tolyl-ethyl)-piperazine]	1.9 nM
Fc1cccc(-c2nsc(N3CCN(CCc4ccc(F)c(F)c4)CC3)n2)c1 [Example 156, 5-(4-(3,4-difluorophenethyl)piperazin-1-yl)-3-(3-fluorophenyl)-1,2,4-thiadiazole]	11.9 nM
COc1cccc(CCN2CCN(c3nc(-c4ccc(OC(F)(F)F)cc4)ns3)CC2)c1 [Example 36, 1-[2-(3-Methoxy-phenyl)-ethyl]-4-[3-(4-trifluoromethoxy-phenyl)-[1,2,4]thiadiazol-5-yl]-piperazine]	119 nM
